{"source": "paper PMC8297771", "about": "(PLoS Pathogens, 2021)", "key": {"IN-LEDGF/p75 binding": {"target": "IN-LEDGF/p75 binding (Human immunodeficiency virus type 1 group M subtype B, UniProt P12497)", "assay": "HTRF-based inhibition assay for LEDGF/p75 binding to IN", "assay_type": "biochemical, HIV-1", "experimental": "We examined the ability of STP0404 to inhibit IN binding to LEDGF/p75 using another HTRF-based assay. Briefly, 10 nM His-tagged IN was pre-incubated in a binding buffer (150 mm NaCl, 2 mm MgCl2, 0.1% Nonidet P-40, 1 mg/ml BSA, 25 mm Tris, pH 7.4) with the compound for 30 min at room temperature, and then 10 nM FLAG-tagged LEDGF/p75 was added to the reaction. This was followed by addition of 6.6 nM anti-His6-XL665 and 0.45 nM anti-FLAG-EuCryptate antibodies (Cisbio, Inc., Bedford, MA)."}, "[1]": {"system": "HIV-1 GFP vector in pre-treated Jurkat cells", "assay": "HIV-1 inhibition in infecting cells (early stage)", "assay_type": "cell-based", "settings": "60 nM in Jurkat cells; vector from untreated 293T cells", "experimental": "To test for STP0404’s inhibitory effects during the late stage of HIV-1 life cycle such as the maturation step, we employed the “producing cells” setup. In T75 tissue culture flasks, 293T cells were pre-treated with and without STP0404 (0 and 60 nM) for 2 hrs prior to transfection with pD3-HIV (13 μg) and pVSV-g (6 μg), using 0.3 mg/ml polyethylenimine. After 24 hrs incubation at 37°C, the supernatant was removed and replaced with fresh media with and without STP0404 (0 and 60 nM). 48 hrs later, D3-HIV vector from each treatment group was concentrated from the collected supernatant via ultracentrifugation (22,000 rpm for 2 hrs). Following p24 quantification, using 96-well plates, similar amount of respective D3-HIV vector was used to transduce Jurkat cells in triplicates for 48 hrs. The cells were harvested and fixed with 3.7% formaldehyde before being analyzed for GFP expression using FACS (Miltenyi Biotec, VYB). Separately, the “infecting cells” setup was used to investigate the inhibitory effects of STP0404 against the early stages of HIV-1 life cycle such as the integration and transcription steps. […] All data were analyzed using GraphPad Prism (Version 9). Unpaired t tests were performed to determine the significance of the readings in respective experimental set up relative to the untreated controls. […]"}, "SIVmac239": {"system": "SIVmac239", "assay": "In vitro efficacy test against SIVmac239 in CEMx174 cells (p27)", "assay_type": "cell-based, SIV", "settings": "p27 assay", "experimental": "CEMx174 cells were infected with HIV-1 primary isolate 89.6 (From infectious clone p89.6, NIH AIDS Reagent Program) at approximately at 10% of cell population determined by FACS analyses. To determine antiviral activity during virus production, STP0404 was added at concentration in the range of 0.1 nM—10 μM during media exchange at 4 hrs post-infection. DMSO was used as a negative control. Cell-free supernatants were measured for p24 antigen production, 5 days post-infection. The anti-HIV-1 efficacy of the two enantiomers of STP0404 were also determined by using the same protocol. All assays were conducted in triplicates. […] For SIVmac239, CEMx174 cells were infected with viral supernatant containing SIVmac293 at 50,000 TCID50/mL (kind gift from Dr. G. Silvestri, Emory Yerkes National Primate Research Center) with 100 μL/10^6 cells at varying concentrations of STP0404, BI224436, and Raltegravir, and the same above protocol was followed except for that p27 capsid antigen content was measured daily for 5 days post infection.\nSupplementary file ppat.1009671.s004.tiff: S1 Fig In vitro efficacy tests of STP0404, BI224436 and Raltegravir against SIVmac239 in CEMx174 cell culture. CEMx174 cells were infected with SIVmac239 with various concentrations of STP0404, BI224436, and Raltegravir, and the viral production was determined by p27 assay at 5 days post infection. […]"}, "[2]": {"assay": "Safety pharmacology: effects on the central nervous system in rats", "assay_type": "in vivo", "settings": "single oral 100, 300 and 600 mg/kg", "experimental": "Effects on the Respiratory System in Rats (Study no. YL18404). Four groups of eight male rats were given a single oral administration of STP0404 at doses of 100, 300 and 600 mg/kg. STP0404 was administered as a suspension in 0.5% MC in a volume of 10 mL/kg. […] Measurements were conducted at pre-dosing and 0.5, 1, 3, 6 12 and 24 hrs post-dosing, and respiratory rate, tidal volume and minute volume were investigated (INA Research, Japan). Effects on the Central Nervous System in Rats (Study no. YL18405). Four groups of six male rats were given a single oral administration of STP0404 at doses of 0 (vehicle), 100, 300 and 600 mg/kg. The test article was administered as a suspension in 0.5% MC in a volume of 10 mL/kg. […] Blinded observations were conducted pre-dosing and 0.5, 1, 3, 6, 12 and 24 hrs post-dosing on rats body temperature, pupil size, landing foot-splay and grip strength in functional observational battery. Effects on the Cardiovascular System in Dogs (Study no. YL18406). STP0404 at dose levels of 30, 60 and 90 mg/kg were administered orally (by capsules) to four male Beagle dogs in a design with 7-day intervals between doses. Heart rate, blood pressure (systolic, diastolic and mean) and electrocardiographic (ECG) parameters (PR, QT and QTc intervals and QRS duration) were evaluated at pre-dosing and 0.5, 1, 2, 4, 8 and 24 hrs post-dosing. […]"}}, "note": "Entries after “also recorded” stand apart in the source; their conditions may differ.", "data": [{"smiles": "Cc1nc2c(c(C)c(C)n2Cc2cnn(C)c2)c(-c2ccc(Cl)cc2)c1[C@H](OC(C)(C)C)C(=O)O", "note": "[STP0404]", "values": [{"measurement": "IC50", "setting": "IN-LEDGF/p75 binding", "value": "190 ± 70", "unit": "nM"}, {"measurement": "transduction efficiency, infecting cells", "setting": "[1]", "value": "no reduction in transduction efficiency"}, {"measurement": "inhibition of SIVmac239", "setting": "SIVmac239", "value": "did not inhibit; also recorded: failed to inhibit"}, {"measurement": "safety pharmacology concerns, central nervous system", "setting": "[2]", "value": "did not induce any safety pharmacology concerns"}]}]}
